Reference: US20240002393A1, “SUBSTITUTED BENZO[f][l ,2,4JTRIAZOL0[4,3-a][l ,4J[…] GABA A GAMMA! POSITIVE ALLOSTERIC MODULATORS” (Hoffmann-La Roche Inc., priority 2020, published 2024)

Legend:
[1] = target: human GABAA α1β2γ1 receptor (Homo sapiens (Human), UniProt P14867+Q8N1C3); experiment: Radioligand binding assay, [3H]RO7239181 competition, γ1-containing GABAA subtypes; conditions: HEK293F membranes, [3H]RO7239181 20-30 nM, mean of two determinations
[2] = target: human GABAA α2β2γ1 receptor (Homo sapiens (Human), UniProt P47869+Q8N1C3); experiment: as above; conditions: for Ki: HEK293F membranes, [3H]RO7239181 20-30 nM, mean of two determinations, read-out: Ki h-GABAA α2β2γ1; for γ2/γ1 Selectivity Ratio: Ki α1β3γ2 (nM)/Ki α2β2γ1 (nM); for LogSel: Log[Ki α1β3γ2 (nM)/Ki α2β2γ1 (nM)]
[3] = target: human GABAA α1β3γ2 receptor (Homo sapiens (Human), UniProt P14867+P18507); experiment: Radioligand binding assay, [3H]Flumazenil competition, γ2-containing GABAA subtypes; conditions: HEK293F membranes, [3H]Flumazenil 1 nM, mean of two determinations; read-out: Ki h-GABAA α1β3γ2
Outline: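 Competition with [3H]Flumazenil (81.1 Ci/mmol) for binding to HEK293F cells transiently expressing human α1β3γ2 receptors, prepared in Mannitol Buffer pH 7.2-7.4. Incubated 1 hour at 4° C to equilibrium, filtered, washed with ice-cold 50 mM Tris pH 7.5, counted by liquid scintillation. Ki values are means of two determinations.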

[4] = target: human GABAA α5β2γ1 receptor (Homo sapiens (Human), UniProt P31644+Q8N1C3); experiment: Radioligand binding assay, [3H]RO7239181 competition, γ1-containing GABAA subtypes; conditions: HEK293F membranes, mean of two determinations

Compound	Ki [1] [nM]	Ki [2] [nM]	γ2/γ1 Selectivity Ratio [2]	LogSel [2]	Ki [3] [nM]	Ki [4] [nM]
Cc1nnc2n1-c1ccc(I)c(Cl)c1C(c1c(F)cccc1F)=N[C@H]2C [Example 102, (4S)-7-chloro-6-(2,6-difluorophenyl)-8-iodo-1,4-dimethyl-4H-[1,2,4]triazolo[4,3-a][1,4]benzodiazepine]	6.6	8	34.7	1.54	278	0.8
C[C@@H]1N=C(c2c(F)cccc2F)c2c(ccc(C(F)(F)F)c2Cl)-n2c(CO)nnc21 [Example 103, [(4S)-7-chloro-6-(2,6-difluorophenyl)-4-methyl-8-(trifluoromethyl)-4H-[1,2,4]triazolo[4,3-a][1,4]benzodiazepin-1-yl]methanol]	49.8	50.4	67.0	1.83	3380	5.4
